Values quoted from earlier work, collected in patent US5849263A, “Pharmaceutical compositions containing alkylaryl polyether alcohol polymer” (priority 1996, dated 1998).

Settings: in vivo

In the case of CCCCCCCCCCCCCCCC(=O)OCC(COP(=O)([O-])OCC[N+](C)(C)C)OC(=O)CCCCCCCCCCCCCCC (stereo not shown) [DPPC, diphalmitoylphosphatidyl choine], the “undesired features / side effects of formulation” value is given as “mucus plugging of the airways and obstruction of ventilator circuits”.
